In one assay the target is T1, α4β1 integrin (Homo sapiens, UniProt P05556+P13612).
T1 construct: a T-cell line, Jurkat, known to express the α4β1 integrin; host or cells: Jurkat T-cell line
T1 sequence (P13612 34-1032): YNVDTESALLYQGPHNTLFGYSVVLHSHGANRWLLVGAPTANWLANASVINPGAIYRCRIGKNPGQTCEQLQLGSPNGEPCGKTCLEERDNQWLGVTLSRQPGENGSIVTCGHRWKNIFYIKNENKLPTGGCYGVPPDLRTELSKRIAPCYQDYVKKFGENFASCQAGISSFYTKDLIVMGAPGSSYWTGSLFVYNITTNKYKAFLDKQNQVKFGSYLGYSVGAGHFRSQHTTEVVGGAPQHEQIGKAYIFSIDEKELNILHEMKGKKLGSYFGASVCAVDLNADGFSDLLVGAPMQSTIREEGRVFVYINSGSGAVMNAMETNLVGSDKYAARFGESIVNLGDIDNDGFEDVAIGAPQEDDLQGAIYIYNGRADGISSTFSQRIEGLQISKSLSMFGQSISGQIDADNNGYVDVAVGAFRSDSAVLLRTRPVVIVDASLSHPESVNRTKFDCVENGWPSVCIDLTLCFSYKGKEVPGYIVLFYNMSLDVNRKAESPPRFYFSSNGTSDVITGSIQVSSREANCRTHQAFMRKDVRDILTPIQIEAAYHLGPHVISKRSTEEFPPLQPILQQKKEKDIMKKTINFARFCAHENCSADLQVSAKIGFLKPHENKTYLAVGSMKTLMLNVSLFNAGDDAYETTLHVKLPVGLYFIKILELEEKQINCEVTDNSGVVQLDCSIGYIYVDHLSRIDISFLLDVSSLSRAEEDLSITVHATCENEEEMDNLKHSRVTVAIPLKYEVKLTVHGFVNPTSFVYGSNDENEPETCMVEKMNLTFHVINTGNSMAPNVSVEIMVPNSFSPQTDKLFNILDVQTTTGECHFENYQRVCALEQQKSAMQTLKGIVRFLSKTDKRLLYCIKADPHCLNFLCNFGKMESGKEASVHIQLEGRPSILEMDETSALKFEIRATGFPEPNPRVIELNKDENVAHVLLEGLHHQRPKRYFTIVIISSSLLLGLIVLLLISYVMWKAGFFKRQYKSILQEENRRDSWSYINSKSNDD
T1 sequence (P05556 21-798): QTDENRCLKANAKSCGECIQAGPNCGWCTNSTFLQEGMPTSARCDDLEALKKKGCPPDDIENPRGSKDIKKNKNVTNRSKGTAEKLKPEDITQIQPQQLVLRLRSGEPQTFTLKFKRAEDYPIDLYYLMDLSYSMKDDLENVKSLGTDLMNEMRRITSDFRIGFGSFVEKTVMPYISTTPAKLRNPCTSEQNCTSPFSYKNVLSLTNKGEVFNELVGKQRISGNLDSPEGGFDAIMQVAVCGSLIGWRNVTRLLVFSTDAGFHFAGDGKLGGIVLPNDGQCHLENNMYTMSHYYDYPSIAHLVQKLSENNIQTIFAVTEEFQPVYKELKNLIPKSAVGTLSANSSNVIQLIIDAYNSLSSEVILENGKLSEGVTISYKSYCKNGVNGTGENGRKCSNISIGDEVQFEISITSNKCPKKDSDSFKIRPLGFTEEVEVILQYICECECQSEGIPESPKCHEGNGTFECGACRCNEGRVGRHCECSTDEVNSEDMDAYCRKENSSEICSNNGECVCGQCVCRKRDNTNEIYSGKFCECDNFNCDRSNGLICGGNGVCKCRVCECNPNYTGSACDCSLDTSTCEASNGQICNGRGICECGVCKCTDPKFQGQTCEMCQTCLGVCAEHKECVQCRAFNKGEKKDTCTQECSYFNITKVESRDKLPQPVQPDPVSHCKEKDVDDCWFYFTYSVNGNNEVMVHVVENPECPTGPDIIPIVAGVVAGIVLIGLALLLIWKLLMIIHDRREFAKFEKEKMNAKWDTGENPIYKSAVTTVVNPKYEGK
Briefly: Jurkat-Endothelial Cell Adhesion Assay (Jurkat EC). The format is cell-based. The conditions noted are these: Jurkat cell adhesion to IL-1 stimulated endothelial cell monolayers. How it is done: The following assay established the activity of the present compounds in inhibiting β1-mediated cell adhesion in a representative in vitro system. This assay measures the adhesive interactions of a T-cell line, Jurkat, known to express the α4β1 integrin, to endothelial monolayers in the presence of test compounds. The test compounds were added in increasing concentrations to T-cells and then the T-cell compound mixture was added to IL-1 stimulated endothelial cell monolayers. The plates were incubated, washed and the percentage of attached cells was quantitated.
Human umbilical vein endothelial cells were purchased from Clonetics (San Diego, CA.) at passage number 2. The cells were grown on 0.5% porcine skin gelatin pre-coated flasks (Sigma, St. Louis MO.) in EGM-UV media (Clonetics, San Diego, CA) supplemented with 10% fetal bovine serum. Cells are refed every 2-3 days reaching confluence by day 4 to 6. […] The endothelial cells are not used following passage 6.
The T-cell line Jurkat was obtained from American Type Tissue Culture Collection (Rockville, MD) and the cells were cultured in RPMI containing 10 % fetal calf serum. The cells were washed twice in Hank's Balanced Salt Solution (HBSS) and resuspended in Dulbecco's Minimal Eagle's Media (DMEM) containing 2.5 mg/ml Human Serum Albumin (HSA). Jurkat cells (1x10^6 cells/ml) were stained with 10 ng/ml BCECF-AM (Molecular Probes, Eugene, OR)) in HBSS without phenol red. The cells were loaded with BCECF for 60 minutes in the dark at 37°C, washed 2 times, and resuspended in DMEM-HSA solution.
Confluent endothelial monolayers, grown in 96-well tissue culture plates, were stimulated for 4 hr. at 37 °C with 0.1 ng/ml (∼50 U/ml) recombinant IL-1 (Amgen, Thousand Oaks, CA). Following this incubation, the monolayers were washed twice with HBSS and 0.1 ml of DMEM-HSA solution was added. Jurkat cells (5 x 10^5 cells) were combined with the appropriate concentration of the test compound and 0.1 ml of the Jurkat cell-compound mixture was added to the endothelial cell monolayers. Generally, 100, 20, 5 and 1.25 µM compound concentrations were tested. […] Following this incubation, the monolayers were washed twice with PBS containing 1 mM calcium chloride and 1 mM magnesium chloride' and the plates were read using a Millipore Cytofluor 2300 (Marlboro, MA.). Fluorescence in each well was measured as Arbitrary Fluorescence Units and percent adhesion in the absence of compound was adjusted to 100% and the % adhesion in the presence of compound was calculated. Monolayers were also fixed in 3% paraformaldehyde and evaluated microscopically to verify the adhesion. This procedure is a modification of a previously published method (Cardarelli et al., J. Biol. Chem. 269:18668-18673 (1994)).
T2 sequence (P13612 34-1032): as the sequence (P13612 34-1032) above
T2 sequence (P05556 21-798): as the sequence (P05556 21-798) above
On to `O=C(NC1CCCCC1C(=O)NC(Cc1ccc(NC(=O)c2c(Cl)cccc2Cl)cc1)C(=O)O)c1cccnc1` (stereo not shown) [Example 79], for which the IC50 fell in the range of 800 to 5000 nM. `CC(O)[C@H]1C[C@@H](CC(=O)N[C@@H](Cc2ccc(NC(=O)c3c(Cl)cccc3Cl)cc2)C(=O)O)C1(C)C` (stereo partly drawn) [Example 89, [1S-(1α,3α)]-4-[(2,6-Dichlorobenzoyl)amino]-N-[[3-(1-hydroxyethyl)-2,2-dimethylcyclobutyl]acetyl]-L-phenylalanine] yielded an IC50 of 5000 to 10000 nM. The same measure, in the same setting: the same measure for `CC(C)(Oc1cccc(/C=C/C(=O)O)c1)C(=O)N[C@@H](Cc1ccc(NC(=O)c2c(Cl)cccc2Cl)cc1)C(=O)O` [Example 22]: 800 to 5000 nM.

Take `O=C(Nc1ccc(C[C@H](NC(=O)N2CCCC[C@H]2C(=O)O)C(=O)O)cc1)c1c(Cl)cccc1Cl` [Example 11]: the half-maximal inhibitory concentration (IC50) lay in the range of 5000 to 10000 nM. As for `CC(=O)c1cccc(OC(C)C(=O)N[C@@H](Cc2ccc(NC(=O)c3c(Cl)cccc3Cl)cc2)C(=O)O)c1` (stereo partly shown) [Example 18], the IC50 was 800 to 5000 nM. The same measure, in the same setting: the same measure for `O=C(/C=C1/CCCc2c(C(=O)O)cccc21)N[C@@H](Cc1ccc(NC(=O)c2c(Cl)cccc2Cl)cc1)C(=O)O` [Example 137, N-[(1Z)-5-Carboxy-3,4-dihydro-1(2H)-naphthalenylideneacetyl]-4-[(2,6-dichlorobenzoyl)amino] -L-phenylalanine]: 5000 to 10000 nM. Still for that read-out and setting: for `CC1=C(C(=O)O)C(C)(C)CC/C1=C\C(=O)N[C@@H](Cc1ccc(NC(=O)c2c(Cl)cccc2Cl)cc1)C(=O)O` [Example 121, N-[(1E)-3-Carboxy-2,4,4-trimethyl-2-cyclohexen-1-ylideneacetyl]-4-[(2,6-dichlorobenzoyl)amino]-L-phenylalanine] the value was 800 to 5000 nM; for `O=C(Nc1ccc(C[C@H](NC(=O)N2CCC(C(=O)O)CC2)C(=O)O)cc1)c1c(Cl)cccc1Cl` [Example 113, 1-[[[(1S)-1-carboxy-2-[4-[(2,6-dichlorobenzoyl)amino]phenyl]ethyl]amino]carbonyl]-4-piperidinecarboxylic acid], 800 to 5000 nM. The same measure, in the same setting: the same measure for `O=C(Nc1ccc(CC(NC(=O)C2CCCCC2C(=O)O)C(=O)O)cc1)c1c(Cl)cccc1Cl` (stereo not shown) [Example 8]: 800 to 5000 nM. `CC(O)[C@@H]1C[C@H](CC(=O)N[C@@H](Cc2ccc(NC(=O)c3c(Cl)cccc3Cl)cc2)C(=O)O)C1(C)C` (stereo partly drawn) [Example 92, [1R-(1α,3α)]-4-[(2,6-Dichlorobenzoyl)amino]-N-[[3-(1-hydroxyethyl)-2,2-dimethylcyclobutyl]acetyl]-L-phenylalanine] showed an IC50 of 800 to 5000 nM.

In turn, `CC1(C)[C@@H](C(=O)N[C@@H](Cc2ccc(NC(=O)c3ccc(Cl)nc3Cl)cc2)C(=O)O)C[C@H]1C(=O)O` [Example 108, (1S-cis)-N-[(3-Carboxy-2,2-dimethylcyclobutyl)carbonyl] -4-[[(2,6-dichloro-3-pyridinyl)carbonyl]amino]-L-phenylalanine] yielded an IC50 of 800 to 5000 nM. The compound `CC(C)(Oc1cccc(C(=O)O)c1)C(=O)N[C@@H](Cc1ccc(NC(=O)c2c(Cl)cccc2Cl)cc1)C(=O)O` [Example 15] registered an IC50 of 800 to 5000 nM.

Take `CC(Oc1ccccc1C(=O)O)C(=O)N[C@@H](Cc1ccc(NC(=O)c2c(Cl)cccc2Cl)cc1)C(=O)O` (stereo partly shown) [Example 28]: the IC50 lay within 800 to 5000 nM. In the case of `CC1(C)[C@H](CC(=O)N[C@@H](Cc2ccc(NC(=O)c3c(Cl)cccc3Cl)cc2)C(=O)O)C[C@@H]1C(=O)O` [Example 90, (1S-cis)-N-[(3-Carboxy-2,2-dimethylcyclobutyl)acetyl]-4-[(2,6-dichlorobenzoyl)amino]-L-phenylalanine], the IC50 is 5000 to 10000 nM. Same read-out and setting: for `O=C(N[C@@H](Cc1ccc(NC(=O)c2c(Cl)cccc2Cl)cc1)C(=O)O)c1ccc(O)c(CN2CCOCC2)c1` [Example 4] the value was 800 to 5000 nM. As for `CC(Sc1ccccc1C(=O)O)C(=O)N[C@@H](Cc1ccc(NC(=O)c2c(Cl)cccc2Cl)cc1)C(=O)O` (stereo partly shown) [Example 24], the half-inhibitory concentration (IC50) lay in the range of 5000 to 10000 nM. Still for that read-out and setting: the same measure for `CC(Oc1cccc(/C=C/C(=O)O)c1)C(=O)N[C@@H](Cc1ccc(NC(=O)c2c(Cl)cccc2Cl)cc1)C(=O)O` (stereo partly shown) [Example 21]: 5000 to 10000 nM; for `CC(Oc1cccc(C(=O)O)c1)C(=O)N[C@@H](Cc1ccc(NC(=O)c2c(Cl)cccc2Cl)cc1)C(=O)O` (stereo partly shown) [Example 14]: 800 to 5000 nM. `O=C(N[C@@H](Cc1ccc(NC(=O)c2c(Cl)cccc2Cl)cc1)C(=O)O)c1cccc(NC(=O)c2ccccc2C(=O)O)c1` [Example 41] yielded an IC50 of 5000 to 10000 nM.

Compound `CC1(C)[C@@H](C(=O)N[C@@H](Cc2ccc(OCc3c(Cl)cccc3Cl)cn2)C(=O)O)C[C@H]1C(=O)O` (relative stereo) [Example 109, [1S-[1α(R*),3α]]-α-[[(3-Carboxy-2,2-dimethylcyclobutyl)carbonyl]amino]-3-[(2,6-dichlorophenyl)methoxy]-6-pyridinepropanoic acid] registered an IC50 of 800 to 5000 nM. `O=C(O)c1cccc(OC(C(=O)N[C@@H](Cc2ccc(NC(=O)c3c(Cl)cccc3Cl)cc2)C(=O)O)c2ccccc2)c1` (stereo partly shown) [Example 16] had an IC50 of 800 to 5000 nM.

The next assay has as its target T2, α4β1 (Homo sapiens, UniProt P05556+P13612).
T2 construct: 100 µl of Jurkat cells (2.5 x 10^6 cells/ml) in DMEM plus BSA; host or cells: Jurkat T-cell line
Kind of assay: Jurkat-CS-1 assay. It is filed as cell-based. Particulars: Jurkat cell adhesion to immobilized CS-1 derived peptide. The procedure: The CS-1 derived peptide, CLHPGEILDVPST, and the scrambled control peptide, CLHGPIELVSDPT, were synthesized on a Beckman 990 synthesizer using t-Boc methodology. The peptides were immobilized onto microtiter plates using the heterobifunctional crosslinker 3-(2-pyridyldithio)propionic acid N-hydroxysuccinimide ester (SPDP) as reported by Pierschbacher et al., Proc. Natl. Acad. USA, 80:1224-1227 (1983). Microtiter plates were coated with 20 µg/ml HSA for 2 hr. at room temperature, washed once with PBS and derivatized with 10 µg/ml SPDP for 1 hr. After washing, 100 µl of a 100 µg/ml cysteine containing peptide solution which had been recently dissolved was added to the wells and allowed to crosslink to the plates overnight at 4 °C. Unbound peptide was removed from plates by washing with PBS. To block non-reacted sites, the plates are coated with 100 µl of a 2.5 mg/ml BSA solution in PBS for 1 hr. at 37 °C. 100 µl of Jurkat cells (2.5 x 10^6 cells/ml) in DMEM plus BSA (2.5 mg/ml) was mixed with an appropriate concentration of the compound to be tested and the mixture was added to peptide coated dishes and incubated for 1 hr. at 37 °C. Generally 100, 20, 5 and 1.25 µM concentrations of the compound were tested.
Following this incubation the plates were washed once with PBS and the attached cells were fixed with 3% paraformaldehyde in PBS and stained with 0.5% toluidine blue in 3.7% formaldehyde. The cells were stained overnight at room temperature and the optical density at 590 nm of toluidine blue stained cells was determined using a vertical pathway spectrophotometer to quantitate attachment (VMAX Kinetic Microplate Reader, Molecular Devices, Menlo Park, CA). This procedure is a modification of a previously published method (Cardarelli et al, J. Biol. Chem., 269:18668-18673 (1994) and Cardarelli et al, Proc. Natl. Acad. Sci. USA, 83:2647-2651 (1986)).
`O=C(NC1CCCCC1C(=O)NC(Cc1ccc(NC(=O)c2c(Cl)cccc2Cl)cc1)C(=O)O)c1cccnc1` (stereo not shown) [Example 79] gave an IC50 of 80 to 500 nM.

In turn, `CC(O)[C@H]1C[C@@H](CC(=O)N[C@@H](Cc2ccc(NC(=O)c3c(Cl)cccc3Cl)cc2)C(=O)O)C1(C)C` (stereo partly drawn) [Example 89, [1S-(1α,3α)]-4-[(2,6-Dichlorobenzoyl)amino]-N-[[3-(1-hydroxyethyl)-2,2-dimethylcyclobutyl]acetyl]-L-phenylalanine] gave an IC50 of 500 to 1000 nM. The compound `CC1(C)[C@@H](C(=O)N[C@@H](Cc2ccc(OCc3c(Cl)cccc3Cl)cc2)C(=O)O)C[C@H]1C(=O)O` [Example 95, (1S-cis)-N-[(3-Carboxy-2,2-dimethylcyclobutyl)carbonyl]-4-[(2,6-dichlorophenyl)methoxy]-L-phenylalanine] had an IC50 of 500 to 1000 nM. With `O=C(Nc1ccc(C(=O)O)cc1)NC1(C(=O)N[C@@H](Cc2ccc(NC(=O)c3c(Cl)cccc3Cl)cc2)C(=O)O)CCCCC1` [Example 60], the IC50 is 500 to 1000 nM. On the same count and under the same terms, the same measure for `O=C(O)CNC(=O)NC1(C(=O)N[C@@H](Cc2ccc(NC(=O)c3c(Cl)cccc3Cl)cc2)C(=O)O)CCCCC1` [Example 54]: 500 to 1000 nM; for `O=C(O)CNC(=O)Nc1cccc(C(=O)N[C@@H](Cc2ccc(NC(=O)c3c(Cl)cccc3Cl)cc2)C(=O)O)c1` [Example 33, N-[3-[(N'-Carboxymethyl)ureido]benzoyl]-4-[(2,6-dichlorobenzoyl)amino]-L-phenylalanine]: 80 to 500 nM. Same read-out and setting: for `CC(=O)CCC(=O)Nc1cccc(C(=O)N[C@@H](Cc2ccc(NC(=O)c3c(Cl)cccc3Cl)cc2)C(=O)O)c1` [Example 39] the value was 500 to 1000 nM. The same measure, in the same setting: for `O=C(O)CCC(=O)Nc1cccc(C(=O)N[C@@H](Cc2ccc(NC(=O)c3c(Cl)cccc3Cl)cc2)C(=O)O)c1` [Example 34] the value was 500 to 1000 nM; for `O=C(COc1ccc(C(=O)O)cc1)N[C@@H](Cc1ccc(NC(=O)c2c(Cl)cccc2Cl)cc1)C(=O)O` [Example 12, N-[(4-carboxyphenoxy)acetyl]-4-[(2,6-dichlorobenzoyl)amino]-L-phenylalanine], 500 to 1000 nM; for `O=C(O)c1cccc(C(=O)Nc2cccc(C(=O)N[C@@H](Cc3ccc(NC(=O)c4c(Cl)cccc4Cl)cc3)C(=O)O)c2)c1` [Example 42], 500 to 1000 nM.

The values are drawn from patent publication EP1144365B1 (TANABE SEIYAKU CO., LTD., priority 1998, dated 2000).
